Laboratory results taken from US6984640B1, “Antiparasitic artemisinin derivatives (endoperoxides)” (Bayer Aktiengesellschaft, priority 1998, dated 2006).

Legend:
Neospora caninum = test: Screening against Neospora caninum cell cultures in vitro (VERO or ED host cells); type: cell-based; set-up: key: 0 = no effect monolayer completely destroyed; 1 = weak effect monolayer partly destroyed, parasite clumps can be seen; 2 = full effect monolayer intact, no tachyzoites observable; T = cytotoxic cells are dead, lysed; conditions: microscopic evaluation 4 days after treatment
Protocol: Screening was conducted in 96-well plates (Falcon 3872). A monolayer of host cells (VERO or ED) were placed on a cell culture plate. Non-infected mono-layers of cells were cultured in two 50 ml tissue culture bottles ([…] cell culture area). The cell layer was detached with trypsin-EDTA (5 ml. Gibco 45300-019) in a CO2-culture cupboard at 37° C. After 10 minutes, most of the cells were detached. The cells were transferred with a 5 ml pipette into a 50 ml centrifuge tube (Greiner, B769331) containing about 1 ml warmed fetal calf serum. After centrifugation for 5 minutes at 1500 rpm (Varifuge 3.0, Heraeus), the liquid was removed and the cell pellet suspended in RPMI medium (100 ml, 95% RPMI 1640, 2% FCS, 1% L-glutamine, 1% sodium hydrogen carbonate, 1% penicillin/streptomycin). The cell suspension was pipetted into six 96-well plates at 150 μl per well. The coated cell culture plates were placed in an incubation cupboard at 37° C. under 5% CO2 for 24 hours. The cells were then infected with Neospora caninum tachyzoites at a concentration of 48,000 tachyzoites per well. This was followed by incubation at 37° C. under 5% CO2 for 24 hours.
The test compounds (0.5-1.5 mg) were weighed into 1.5 ml eppendorf vessels and dissolved in 1 ml dimethyl sulphoxide, corresponding to a dilution of about 1×10^−3 g ml^−1. The medium used for further dilution consisted of 87% RPMI 1640, 10% FCS, 1% L-glutamine, 1% sodium hydrogen carbonate, 1% penicillin/streptomycin. In the first screening, concentrations of […], […] and 10^−7 g ml^−1 were used. The diluted preparations were then transferred to the cell culture plates at a volume of 150 μl per well after 24 hour infection with Neospora caninum. For the first row, untreated medium was used; this row contained infected and uninfected cells as controls. The cell plate was incubated at 37° C. under 5% CO2 for 5 days. Microscopic evaluation was conducted 4 days after treatment and 5 days after infection at a magnification of 25×10 in an inverse microscope according to the following evaluation scheme.

Eimeria tenella = test: Screening against Eimeria tenella cell cultures in vitro (chick kidney cells); type: cell-based; set-up: key: 3 = very active no intact parasites/well; 2 = active 1-6 parasites per well; 1 = weakly active up to 1 intact schizont/optical field of vision; 0 = inactive >1 intact schizont/optical field of vision; T = cytotoxic host cells are dead; conditions: day 5 post infection
Protocol: Cells from kidneys of 19 day old chicks are cultured as monolayers in 96-well plates (Falcon 3872) in a medium of Hanks lactalbumine hydrolysate, 5% fetal calf serum, 1% glutamine and 1% non-essential amino acids. After two days at 42° C. under 5% CO2, the culture was infected with excised sporozoites of Eimeria tenella at about […] per well. Test compounds were dissolved in DKSO and diluted with culture medium to a maximum end concentration of 10 μg ml^−1. The dilution steps were 1:10. On day 5 post infection, the cultures were evaluated under a microscope at 100-fold magnification and the condition of the host cells and the amount of intact schizonts and free merozoites was determined.

[1] = tested on: Plasmodium falciparum D6 strain (chloroquine sensitive); test: In vitro screening against Plasmodium falciparum, 3H-hypoxanthine incorporation, D6 strain; type: cell-based; conditions: for In vitro activity: (IC10) / In vitro activity: IC50 / In vitro activity: IC90: 66 hours incubation
From the text: (§1) Two parasite strains—W2 resistant to chloroquine, and D6 sensitive to chloroquine but resistant to mefloquine were used. In Table IV below, the best compounds should show no cross resistance between the two strains.
(§2) The assay relies on incorporation of radiolabelled hypoxanthine by the parasite and inhibition of incorporation is attributed to activity of known or candidate antimalarial drugs. For each assay, proven antimalarials such as chloroquine, mefloquine, quinine, artemisinin and pyrimethamine were used as controls. The incubation period was 66 hours, and the starting parasitemia was 0.2% with 1% hematocrit. The medium was an RPMI-1640 culture with no folate or p-aminobenzoic acid. Albumax rather than 10% normal heat inactivated human plasma was used as, with Albumax, less protein binding is observed, and compounds elicit slightly higher activities in this model. If a compound was submitted with no prior knowledge of activity, it was dissolved directly in dimethyl sulphoxide (DMSO), and diluted 400 fold with complete culture medium. The unknown compound was started at a maximum concentration of 50,000 ng ml^−1 and sequentially diluted 2-fold for 11 times to give a concentration range of […]. These dilutions were performed automatically by a Biomek 1000 Liquid Handling System in 96-well microtiter plates. The diluted drugs were then transferred to test plates, 200 μl of parasitized erythrocytes were added, and incubated at 37° C. in a controlled environment of 5% CO2, 5% O2 and 90% N2. After 42 hours, 25 μl of ^3H-hypoxanthine was added, and the plates incubated for an additional 24 hours. After 66 hours, the plates were frozen at −70° C. to lyse the red cells, and then thawed and harvested onto glass fiber filter mats in a 96-well harvester. The filter mats were then counted in a scintillation counter. For each drug, the concentration response profile was determined and 50%, 90% and 10% inhibitory concentrations (IC50 IC90 and IC10) were determined by a non-linear logistic dose response analysis program.
(§3) A prescreen format can be used wherein a 3-dilution assay may be used to determine activity at high medium or low concentrations. The concentrations were selected as 50,000, 500 and 50 ng ml^−1. These were performed in duplicate on a 96-well format plate with 14 test compounds and one known (standard) compound per plate. The system was automated with a Biomek diluter for mixing and diluting the drugs, and adding drugs and parasites to a test plate. In the prescreen format, if the ANALYSIS FIELD (AP) has a “<”, then the compound was “very active” and the IC values are most likely to be below the last dilution value (in nanograms/ml), which is listed next to AF. In most cases, these compounds were run again at lower starting concentration to determine the true IC value. If the AF has a “>”, then the IC value is greater than the prescreen dilution value; thus “AF>250” means that the IC value is greater than 250 ng ml^−1 and no further screening is carried out. In such cases, values of 0.00 are entered for IC values.

[2] = tested on: Plasmodium falciparum W2 strain (chloroquine resistant); test: In vitro screening against Plasmodium falciparum, 3H-hypoxanthine incorporation, W2 strain; type: cell-based; conditions: for In vitro activity: (IC10) / In vitro activity: IC50 / In vitro activity: IC90: 66 hours incubation
From the text: as §1, §2, §3

Neospora = conditions: administered via drinking water; cited from earlier work
[3] = prescreen 3-dilution assay, 0.00 entered for IC values

CC1CCC2C(C)C(Nc3ccc(Br)cc3)OC3OC4(C)CCC1C32OO4 (stereo not drawn) [Example 18]
Evaluation of effect against Neospora caninum (Neospora caninum; Dose 10^−5 g/ml): 2 | Evaluation of effect against Neospora caninum (Neospora caninum; Dose 10^−6 g/ml): 1 | Evaluation of effect against Neospora caninum (Neospora caninum; Dose 10^−7 g/ml): 0 | Effectiveness rating against Eimeria tenella (Eimeria tenella; Dose 10^−5 g/ml): T | Effectiveness rating against Eimeria tenella (Eimeria tenella; Dose 10^−6 g/ml): T | Effectiveness rating against Eimeria tenella (Eimeria tenella; Dose 10^−7 g/ml): 1 (1 = weakly active up to 1 intact schizont/optical field of vision) | Effectiveness rating against Eimeria tenella (Eimeria tenella; Dose 10^−8 g/ml): 0 (0 = inactive >1 intact schizont/optical field of vision) | In vitro activity: (IC10) [1]: 0.09 ng/mL | In vitro activity: IC50 [1]: 0.28 ng/mL | In vitro activity: IC90 [1]: 0.82 ng/mL | In vitro activity: (IC10) [2]: 0.17 ng/mL | In vitro activity: IC50 [2]: 0.23 ng/mL | In vitro activity: IC90 [2]: 0.33 ng/mL

CC1CCC2C(C)C(Nc3ccc(I)cc3)OC3OC4(C)CCC1C32OO4 (stereo not drawn) [Example 19]
Evaluation of effect against Neospora caninum (Neospora caninum; Dose 10^−5 g/ml): T | Evaluation of effect against Neospora caninum (Neospora caninum; Dose 10^−6 g/ml): 0 | Effectiveness rating against Eimeria tenella (Eimeria tenella; Dose 10^−5 g/ml): T | Effectiveness rating against Eimeria tenella (Eimeria tenella; Dose 10^−6 g/ml): T | Effectiveness rating against Eimeria tenella (Eimeria tenella; Dose 10^−7 g/ml): 1 (1 = weakly active up to 1 intact schizont/optical field of vision) | Effectiveness rating against Eimeria tenella (Eimeria tenella; Dose 10^−8 g/ml): 0 (0 = inactive >1 intact schizont/optical field of vision) | In vitro activity: (IC10) [1]: 0.19 ng/mL | In vitro activity: IC50 [1]: 0.39 ng/mL | In vitro activity: IC90 [1]: 0.80 ng/mL | In vitro activity: (IC10) [2]: 0.25 ng/mL | In vitro activity: IC50 [2]: 0.33 ng/mL | In vitro activity: IC90 [2]: 0.43 ng/mL

CC1CCC2C(C)C(Nc3ccc(-c4ccccc4)cc3)OC3OC4(C)CCC1C32OO4 (stereo not drawn) [Example 20]
Evaluation of effect against Neospora caninum (Neospora caninum; Dose 10^−6 g/ml): 1 | Evaluation of effect against Neospora caninum (Neospora caninum; Dose 10^−7 g/ml): 1 | Evaluation of effect against Neospora caninum (Neospora caninum; Dose 10^−8 g/ml): 0 | Effectiveness rating against Eimeria tenella (Eimeria tenella; Dose 10^−5 g/ml): T | Effectiveness rating against Eimeria tenella (Eimeria tenella; Dose 10^−7 g/ml): 0 (0 = inactive >1 intact schizont/optical field of vision) | In vitro activity: (IC10) [1]: 6.84 ng/mL | In vitro activity: IC50 [1]: 9.40 ng/mL | In vitro activity: IC90 [1]: 12.93 ng/mL | In vitro activity: (IC10) [2]: 2.64 ng/mL | In vitro activity: IC50 [2]: 5.81 ng/mL | In vitro activity: IC90 [2]: 12.77 ng/mL

CC1CCC2C(C)C(NCc3cc(C(F)(F)F)cc(C(F)(F)F)c3)OC3OC4(C)CCC1C32OO4 (stereo not drawn) [Example 23]
Evaluation of effect against Neospora caninum (Neospora caninum; Dose 10^−6 g/ml): 0 | Effectiveness rating against Eimeria tenella (Eimeria tenella; Dose 10^−5 g/ml): T | Effectiveness rating against Eimeria tenella (Eimeria tenella; Dose 10^−7 g/ml): 0 (0 = inactive >1 intact schizont/optical field of vision) | ANALYSIS FIELD (AF): bound on the IC values in prescreen format [1, 3]: 0.00; 0.00; AF > 250 ng/ml | ANALYSIS FIELD (AF): bound on the IC values in prescreen format [2, 3]: 0.00; 0.00; AF > 250 ng/ml

CCCNC1OC2OC3(C)CCC4C(C)CCC(C1C)C24OO3 (stereo not drawn) [Example 24]
Evaluation of effect against Neospora caninum (Neospora caninum; Dose 10^−5 g/ml): 1 | Evaluation of effect against Neospora caninum (Neospora caninum; Dose 10^−6 g/ml): 0 | Effectiveness rating against Eimeria tenella (Eimeria tenella; Dose 10^−5 g/ml): 2 (2 = active 1-6 parasites per well) | Effectiveness rating against Eimeria tenella (Eimeria tenella; Dose 10^−6 g/ml): 1 (1 = weakly active up to 1 intact schizont/optical field of vision) | Effectiveness rating against Eimeria tenella (Eimeria tenella; Dose 10^−7 g/ml): 0 (0 = inactive >1 intact schizont/optical field of vision) | In vitro activity: (IC10) [1]: 0.65 ng/mL | In vitro activity: IC50 [1]: 1.17 ng/mL | In vitro activity: IC90 [1]: 2.10 ng/mL | In vitro activity: (IC10) [2]: 0.46 ng/mL | In vitro activity: IC50 [2]: 0.77 ng/mL | In vitro activity: IC90 [2]: 1.30 ng/mL

CC1CCC2C(C)C(N3CCOCC3)OC3OC4(C)CCC1C32OO4 (stereo not drawn) [Example 25]
Evaluation of effect against Neospora caninum (Neospora caninum; Dose 10^−6 g/ml): 1 | Evaluation of effect against Neospora caninum (Neospora caninum; Dose 10^−7 g/ml): 1 | Evaluation of effect against Neospora caninum (Neospora caninum; Dose 10^−8 g/ml): 0 | Effectiveness rating against Eimeria tenella (Eimeria tenella; Dose 10^−5 g/ml): 2 (2 = active 1-6 parasites per well) | Effectiveness rating against Eimeria tenella (Eimeria tenella; Dose 10^−6 g/ml): 1 (1 = weakly active up to 1 intact schizont/optical field of vision) | Effectiveness rating against Eimeria tenella (Eimeria tenella; Dose 10^−7 g/ml): 1 (1 = weakly active up to 1 intact schizont/optical field of vision) | Effectiveness rating against Eimeria tenella (Eimeria tenella; Dose 10^−8 g/ml): 0 (0 = inactive >1 intact schizont/optical field of vision) | In vitro activity: (IC10) [1]: 0.02 ng/mL | In vitro activity: IC50 [1]: 0.09 ng/mL | In vitro activity: IC90 [1]: 0.35 ng/mL | In vitro activity: (IC10) [2]: 0.07 ng/mL | In vitro activity: IC50 [2]: 0.11 ng/mL | In vitro activity: IC90 [2]: 0.17 ng/mL

Nc1ccc(S(=O)(=O)Nc2ncccn2)cc1 [Sulfadiazin]
efficacy against neosporosis in experimentally infected mice (Neospora): effective in experimentally infected mice, only if the treatment was prophylactic
